Here are results for 2 molecules from patent US8778948B2, “Substituted phenylpiperazinyl aralkylalcohol derivatives, pharmaceutical compositions containing such derivatives and uses thereof” (priority 2008, dated 2014).

“Also recorded” adds a separate entry of the source. Marks after values point to notes of the source that are not given here.

The test system of data set [1] is Kunming mice. The data set is described as follows: Acetic acid-induced abdominal writhing test in mice. Type of data set: in vivo. The following applies: 1 h before 0.7% acetic acid i.p. As to the method:
Acetic Acid-Induced Abdominal Writhing Test in Mice
Kunming mice, SPF KM mice purchased from […] SLAC LABORATORY ANIMAL CO. LTD and kept in normal environment.
(§1) 2. Modes of Administration
The compounds were dissolved in water for injection at a concentration of 4 mg/ml, 2 mg/ml and 1 mg/ml and were given intragastrically to animals.
(§2) Three different doses (10, 20, and 40 mg/kg) were administered to the test groups.
Aspirin was used as a positive control and acetic acid writhing test was used.
30 mice (half male and half female) weighing 18-23 g were divided into five groups, including negative control group, positive control group, low dose group, medium dose group and high dose group:
Mice in test group received test drug (10 mg/kg, 20 mg/kg, 40 mg/kg) via intragastric administration. Negative control group received physiological saline (20 ml/kg) via oral administration. Positive control group received aspirin (200 mg/kg) via oral administration. One hour later, each group received 0.7% acetic acid 10 ml/kg intraperitoneally. Five minutes later, the number of writhes was counted within the subsequent 15 min period; inhibition percentage of writhing response in each test group was calculated by the following equation: […]

In data set [2] the target is opioid receptor subtype δ (Homo sapiens, UniProt P41143). As to the kind of experiment: Competitive radioligand binding ([3H]Diprenorphine), opioid receptor subtype δ. The following applies: for inhibition at 10 µM: read-out: Inhibition percentage of competitive binding, δ. The method, then: (§3) Competitive Binding Between the Compounds and Opioid Receptor Subtypes μ, δ, κ
(§4) The respective test compounds were added to the sample tube (final concentration of 10^−5M), incubated at 37° C. for 30 min and placed in ice bath to terminate the reaction. The reaction mixture was filtered through GF/C(Whatman) glass fiber filter by vacuum filtration on a Millipore sample collector. The filter was washed three times with 50 mM Tris-HCl (pH7.4), each with 4 ml; dried and transferred into a 0.5 ml Eppendorf tube, in which 0.5 ml lipophilic scintillation fluid was added. Radioactivity was detected by a LS6500 scintillation counter. Each concentration had three duplicate test tubes and each separate test was repeated 3 to 4 times.
(§5) Specific binding CMP value for each sample tube=overall binding CPM value for each sample tube-CPM value of non-specific binding tube. [Inhibition percentage of competitive binding between the test compound and different opioid receptor subtypes (%)=(100%−specific binding (CPM value) of sample tube/specific binding (CPM value) of solvent group×100%)]
Average was taken for each test drug from three duplicate tubes; each test was repeated two or more times. Data were presented as mean±SE and statistical comparison was made by ANOVA.

Data set [3] in a line: Animal model study of compound I-20 (summary statements).
Data set [4] addresses opioid receptor subtype μ (Homo sapiens, UniProt P35372). The data set is described as follows: biochemical. Format: binding. The following applies: for inhibition at 10 µM: test concentration 10^−5 mol/L, [3H]Diprenorphine 0.4 nM, mean±SE, read-out: Inhibition percentage of competitive binding, μ. The method, then: as §3, §4, §5
(§6) Average was taken for each test drug from three duplicate tubes; each test was repeated two or more times.

The target in data set [5] is opioid receptor subtype κ (Homo sapiens, UniProt P41145). The data set is described as follows: biochemical. Format: binding. As to conditions: for inhibition at 10 µM: test concentration 10^−5 mol/L, [3H]Diprenorphine 0.4 nM, mean±SE, read-out: Inhibition percentage of competitive binding, κ. As to the method: as §3, §4, §5, §6
Data set [6] relates to Salmonella typhimurium histidine auxotroph mutants TA97, TA98, TA100 and TA102. Type of data set: cell-based. The method, then: Bacterial Reverse Mutation Test on I-20
Bacterial reverse mutation test on compound I-20 was performed on Salmonella typhimurium histidine auxotroph mutants TA97, TA98, TA100 and TA102 (purchased from MolTox company) using conventional procedures of Ames test.
Observation period: colony counting was done 48 hours after cultivation at 37° C.
Drug solutions with different concentrations were prepared with double distilled water, and the doses were 5, 50, 500, 1000, 5000 μg/plate.
Direct effect of the test drug in the absence of metabolic activity was determined by standard plate incorporation assay. The composition of the test top layer was: 2.0 ml top layer, 0.1 ml drug solution, 0.1 ml bacteria solution and 0.5 ml phosphate buffer.
Pre-incubation was used in the determination of the drug's mutagenic effect in the presence of metabolic activity. The composition of the test top layer is: 2.0 ml top layer, 0.1 ml drug solution, 0.1 ml bacteria solution and 0.5 ml S9 mix.
The resulting drug solution, bacterial solution and S9 mix were first incubated at 35° C. for 30 min while shaking, and then tested according to standard plate incorporation assay. Each dose was tested in three plates, each mutant was tested in the absence or presence of metabolic activity (−S9 or +S9) and repeated twice, the number of revertant colonies was calculated as x±SD.
Results: the test included two parts, −S9 and +S9. […] Other doses had no bacteristatic effect to all strains, and the background growth was good.

Data set [7] relates to Kunming mice. The data set is described as follows: Hot-plate test in mice. Type of data set: in vivo. As to conditions: 1 h post dose, hot plate 55° C. The method, then: Kunming mice, SPF KM mice were purchased from […] SLAC LABORATORY ANIMAL CO. LTD and kept in normal environment.
as §1
The compounds were dissolved in water for injection at a concentration of 4 mg/ml, 2 mg/ml and 1 mg/ml and were given subcutaneously to animals.
as §2
Morphine was used as a positive control and hot plate test was used.
30-40 mice (half male and half female) weighing 18-23 g were used. First, each mouse was placed on a hot plat at 55° C. to determine basic pain threshold for 2-3 times. Those animals with basic pain threshold of 5-30 s were qualified, unqualified mice were not used. 30 qualified mice were divided into five groups, including negative control group, positive control group, low-dose group, medium-dose group and high-dose group:
Mice in test groups received test sample solution (10 mg/kg, 20 mg/kg, 40 mg/kg) via subcutaneous injection in the neck. Positive control group received subcutaneous injection of morphine (2 mg/kg). One hour later, pain threshold values were determined for mice in each group as post-drug pain threshold. Percentage increase in pain threshold was calculated according to the following equation: […]

The next data set can be described thus: in vivo. The following applies: mouse, po, mice. The text has this:
Studies of Acute Toxicity of the Compound I-1 and I-20
For statistics of 1-20, Bliss method was used (“Experimental Design and Statistical Basis for Drug Evaluation”, Changxiao Liu, Ruiyuan Su, first edition, Military Medical Science Press, 1993, 80-90).

Chain of opioid receptor subtype μ (P35372 whole entry): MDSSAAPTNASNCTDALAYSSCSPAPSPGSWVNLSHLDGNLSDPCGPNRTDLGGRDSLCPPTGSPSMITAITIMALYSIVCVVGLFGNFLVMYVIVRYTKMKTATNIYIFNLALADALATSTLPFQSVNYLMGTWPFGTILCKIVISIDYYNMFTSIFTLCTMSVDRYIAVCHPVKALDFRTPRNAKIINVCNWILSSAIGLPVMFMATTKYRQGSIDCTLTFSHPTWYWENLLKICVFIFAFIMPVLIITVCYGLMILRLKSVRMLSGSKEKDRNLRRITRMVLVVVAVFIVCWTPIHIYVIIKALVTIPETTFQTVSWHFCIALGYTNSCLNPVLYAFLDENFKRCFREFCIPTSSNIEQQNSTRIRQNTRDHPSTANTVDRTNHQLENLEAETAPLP
Chain of opioid receptor subtype κ (P41145 whole entry): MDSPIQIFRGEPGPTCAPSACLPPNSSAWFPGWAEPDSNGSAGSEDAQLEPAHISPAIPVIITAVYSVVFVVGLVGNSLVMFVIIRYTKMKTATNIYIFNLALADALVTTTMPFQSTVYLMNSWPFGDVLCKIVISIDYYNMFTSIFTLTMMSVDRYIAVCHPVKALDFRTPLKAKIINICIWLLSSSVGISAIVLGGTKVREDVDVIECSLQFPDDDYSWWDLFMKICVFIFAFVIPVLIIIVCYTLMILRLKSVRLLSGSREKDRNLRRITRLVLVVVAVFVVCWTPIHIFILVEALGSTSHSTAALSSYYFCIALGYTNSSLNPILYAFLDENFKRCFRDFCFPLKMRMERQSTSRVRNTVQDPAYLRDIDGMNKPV
Chain of opioid receptor subtype δ (P41143 whole entry): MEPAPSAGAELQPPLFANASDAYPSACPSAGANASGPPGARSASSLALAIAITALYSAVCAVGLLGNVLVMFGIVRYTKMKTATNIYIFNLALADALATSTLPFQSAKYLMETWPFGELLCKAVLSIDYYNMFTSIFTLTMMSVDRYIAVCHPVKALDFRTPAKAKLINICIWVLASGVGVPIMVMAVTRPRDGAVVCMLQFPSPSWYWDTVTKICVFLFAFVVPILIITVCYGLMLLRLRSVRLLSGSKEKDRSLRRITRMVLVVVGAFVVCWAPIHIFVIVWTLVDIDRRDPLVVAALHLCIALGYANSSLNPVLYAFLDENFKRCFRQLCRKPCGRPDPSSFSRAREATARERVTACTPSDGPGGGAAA

`COc1ccccc1N1CCN([C@H](C)[C@H](O)c2ccccc2)CC1` (racemic) [Compound I-20, (1RS,2RS)-1-phenyl-2-(4-(2-methoxyphenyl)piperazinyl)-propan-1-ol]: the “Inhibition percentage of writhing response” value in the data set on Kunming mice [1] (10 mg/kg Ig) is given as 46.61%; with Kunming mice [1] (20 mg/kg Ig), 72.03 * %; in the data set with Kunming mice [1] (40 mg/kg Ig), 64.41%. Besides, in data set [2], the “Affinity to opioid receptor subtype δ (in words)” value is given as “no obvious affinity”. For the same molecule, the inhibition at 10 µM in data set [2] was determined as 0%; in data set [4] it was 13.4 ± 2.1%; in data set [5], 8.9 ± 0.2%. In data set [3] (animal model study), the “Analgesic effect (in words)” value is given as “obvious analgesic effect”. Further, in data set [3] (in vivo), the “Potential for drug dependence” value is “low potential for drug dependence”. In addition, the “Drug resistance after multiple applications” value in data set [3] (multiple applications) is reported as “No drug resistance is observed”. Besides, the “Absorption with oral administration (in words)” value in data set [3] (oral administration) was “well absorbed; also recorded: good absorption”. The “Affinity to opioid receptor subtype μ (in words)” value in data set [4] was “no obvious affinity”. In data set [5], the “Affinity to opioid receptor subtype κ (in words)” value is reported as “no obvious affinity”. The Ames test result in data set [6] (TA97, TA98, TA100, TA102, −S9 and +S9, 5-5000 μg/plate) was “negative”. In addition, the “Bacteristatic effect on test strains” value in data set [6] (TA98 in −S9 test system and TA97 in +S9 test system) was “bacteristatic effects”. Also, the “Increase in the number of revertant colonies” value in data set [6] (−S9 and +S9, 5, 50, 500, 1000, 5000 μg/plate) is “None of the tested dose resulted in significant increase”. Also, the entries for the “Percentage increase in pain threshold” value in the data set on Kunming mice [7] (10 mg/kg S.c.), with Kunming mice [7] (20 mg/kg S.c.) and in the data set on Kunming mice [7] (40 mg/kg S.c.) were 63.29 * %, 80.88 * % and 186.25 ** %, respectively. In “in vivo”, this molecule had a 50% lethal dose (LD50) of 674 mg/kg.

For `C[C@@H]([C@H](O)c1ccccc1)N1CCN(c2cccc(C(F)(F)F)c2)CC1` (racemic) [Compound I-1, (1RS,2SR)-1-phenyl-2-(4-(3-trifluoromethylphenyl)piperazinyl)-propan-1-ol], the “Inhibition percentage of writhing response” value is 64.38 * % with Kunming mice [1] (10 mg/kg Ig), 68.13 * % in the data set with Kunming mice [1] (20 mg/kg Ig) and 83.13 ** % with Kunming mice [1] (40 mg/kg Ig). For the same molecule, the inhibition at 10 µM is 0% in data set [2], 22.7 ± 2.2% in data set [4] and 2.7 ± 0.9% in data set [5]. Further, the figures for the “Percentage increase in pain threshold” value in the data set on Kunming mice [7] (10 mg/kg S.c.), in the data set on Kunming mice [7] (20 mg/kg S.c.) and in the data set with Kunming mice [7] (40 mg/kg S.c.) were 4.53%, 11.7% and 89.62 ** %, respectively. This molecule returned a median lethal dose (LD50) in “in vivo” of more than 2000 mg/kg.
